The nature of data set [1]: Storage stability of aqueous solution (residual concentration). In kind it is physicochemical. Conditions: 0.5 w/v% aqueous solution, pH range of 3 to 10, stored at 60°C for 1 or 2 weeks.
Data set [2] in a line: Acute toxicity in mice (intravenous LD50). Conditions: mouse, in vivo, read-out: acute toxicity (LD₅₀, intravenous). The procedure:
It is to be noted that the acute toxicity of the S-compound in mice (LD₅₀, intravenous) is 244 mg/kg.

On to `C[C@H]1COc2c(N3CCN(C)CC3)c(F)cc3c(=O)c(C(=O)O)cn1c23` [S-compound, S-(-)-9-fluoro-3-methyl-10-(4-methyl-1-piperazinyl)-7-oxo-2,3-dihydro-7H-pyrido[1,2,3-de][1,4]benzoxazine-6-carboxylic acid], for which the residual concentrations result in data set [1] is “stably remained without decomposition”. The LD50 in data set [2] stood at 244 mg/kg.

The record behind these values is patent publication EP0275515B1, “Aqueous pharmaceutical composition” (DAIICHI PHARMACEUTICAL CO., LTD., priority 1986, dated 1988).
